Assay results published in patent US20150329515A1, “COMPOSITION AND METHOD FOR TREATING OR PREVENTING INFLUENZA VIRUS INFECTION” (National Defense Medical Center, priority 2014, published 2015).
Where two headings read alike, the source gives them in different places.

What was measured:
[1] = test system: Tamiflu-resistant 2009 pandemic influenza A (H1N1) virus (H275Y mutation in neuraminidase); conditions: for SI (selective index = CC50/EC50), H1N1 Tamiflu-resistant: dog
[2] = test system: Tamiflu-resistant 2009 pandemic influenza A (H1N1) virus (H275Y mutation in neuraminidase); experiment: in vitro; conditions: dog, SI (selective index = CC50/EC50)
in vitro = conditions: dog, CC50 (μM)
[3] = test system: Madin-Darby canine kidney (MDCK) cells
H1N1 influenza virus = experiment: In vitro anti-H1N1 influenza virus activity (oseltamivir footnote); type: cell-based
[4] = read-out: EC50 (μM), H1N1 Tamiflu-resistant
[5] = read-out: EC50 (μM), H1N1 Tamiflu-resistant virus

| SMILES | EC50 [1, 4] [µM] | selectivity ratio ([2]; H1N1 Tamiflu-resistant) | CC50 (in vitro) [µM] | EC50 [1, 5] [µM] | CC50 [3] [µM] | other results |
| --- | --- | --- | --- | --- | --- | --- |
| O=c1cc(-c2ccccc2)oc2cc(O)c(O)c(O)c12 [Baicalein, reference compound] | 46.2 | > 6.5 | > 300 | – | – | selectivity ratio ([2]; H1N1 Tamiflu-resistant virus): > 3.3 |
| O=C(O)[C@H]1O[C@@H](Oc2cc3oc(-c4ccccc4)cc(=O)c3c(O)c2O)[C@H](O)[C@@H](O)[C@@H]1O [Baicalin, reference compound] | 69.3 | > 4.3 | > 300 | – | – | – |
| COc1cc2oc(-c3ccccc3Br)cc(=O)c2c(OC)c1OC [Compound 2k, 2-(2-Bromophenyl)-5,6,7-trimethoxy-4H-chromen-4-one] | 16 | 8 | 128 | – | – | – |
| COc1cc2oc(-c3cccc(Br)c3)cc(=O)c2c(OC)c1OC [Compound 2l, 2-(3-Bromophenyl)-5,6,7-trimethoxy-4H-chromen-4-one] | 4 | > 8 | 32.1 | – | – | – |
| COc1cc2oc(-c3ccc(Br)cc3)cc(=O)c2c(OC)c1OC [Compound 2m, 2-(4-Bromophenyl)-5,6,7-trimethoxy-4H-chromen-4-one] | 192 | 0.7 | 128 | – | – | – |
| O=c1cc(-c2ccccc2)oc2cc(O)c(O)c(O)c12 [Compound 3a] | – | – | – | 92.3 | > 300 | – |
| O=c1cc(-c2ccccc2Cl)oc2cc(O)c(O)c(O)c12 [Compound 3b] | – | – | – | 10.2 | > 300 | – |
| O=c1cc(-c2cccc(Cl)c2)oc2cc(O)c(O)c(O)c12 [Compound 3c] | – | – | – | 50 | > 300 | SI (selective index = CC50/EC50), H1N1 Tamiflu-resistant virus [1]: >6.0 |
| O=c1cc(-c2ccc(Cl)cc2)oc2cc(O)c(O)c(O)c12 [Compound 3d] | – | – | – | 10.2 | > 300 | – |
| O=c1cc(-c2ccc(Cl)cc2Cl)oc2cc(O)c(O)c(O)c12 [Compound 3e] | – | – | – | 73.7 | > 300 | SI (selective index = CC50/EC50), H1N1 Tamiflu-resistant virus [1]: >4.1 |
| O=c1cc(-c2ccc(F)c(Br)c2)oc2cc(O)c(O)c(O)c12 [Compound 3g] | – | – | – | 204 | > 300 | SI (selective index = CC50/EC50), H1N1 Tamiflu-resistant virus [1]: >1.5 |
| O=C(O)c1ccc(-c2cc(=O)c3c(O)c(O)c(O)cc3o2)cc1 [Compound 3h] | – | – | – | 39.7 | > 300 | SI (selective index = CC50/EC50), H1N1 Tamiflu-resistant virus [1]: >7.6 |
| O=c1cc(-c2ccc(-c3ccccc3)cc2)oc2cc(O)c(O)c(O)c12 [Compound 3i] | – | – | – | 72 | > 300 | SI (selective index = CC50/EC50), H1N1 Tamiflu-resistant virus [1]: >4.2 |
| O=c1cc(-c2ccc([N+](=O)[O-])cc2)oc2cc(O)c(O)c(O)c12 [Compound 3j] | – | – | – | 18.1 | > 300 | SI (selective index = CC50/EC50), H1N1 Tamiflu-resistant virus [1]: >16.6 |
| COc1cc2oc(-c3ccccc3Br)cc(=O)c2c(O)c1OC [Compound 4a, 2-(2-Bromophenyl)-5-hydroxy-6,7-dimethoxy-4H-chromen-4-one] | 16.1 | 8.3 | 133 | – | – | – |
| COc1cc2oc(-c3cccc(Br)c3)cc(=O)c2c(O)c1OC [Compound 4b, 2-(3-Bromophenyl)-5-hydroxy-6,7-dimethoxy-4H-chromen-4-one] | 4.2 | > 15.8 | 66.5 | – | – | – |
| COc1cc2oc(-c3ccc(Br)cc3)cc(=O)c2c(O)c1OC [Compound 4c, 2-(4-Bromophenyl)-5-hydroxy-6,7-dimethoxy-4H-chromen-4-one] | 4.2 | > 66.7 | > 300 | – | – | SI (selective index = CC50/EC50), H1N1 Tamiflu-resistant [1]: >71.4 |
| COc1c(O)cc2oc(-c3ccccc3Br)cc(=O)c2c1O [Compound 5a, 2-(2-Bromophenyl)-5,7-dihydroxy-6-methoxy-4H-chromen-4-one] | 8.6 | > 34.9 | > 300 | – | – | – |
| COc1c(O)cc2oc(-c3cccc(Br)c3)cc(=O)c2c1O [Compound 5b, 2-(3-Bromophenyl)-5,7-dihydroxy-6-methoxy-4H-chromen-4-one] | 4.3 | > 66.7 | > 300 | – | – | SI (selective index = CC50/EC50), H1N1 Tamiflu-resistant [1]: >69.8 |
| COc1c(O)cc2oc(-c3ccc(Br)cc3)cc(=O)c2c1O [Compound 5c, 2-(4-Bromophenyl)-5,7-dihydroxy-6-methoxy-4H-chromen-4-one] | 4.3 | > 66.7 | > 300 | – | – | SI (selective index = CC50/EC50), H1N1 Tamiflu-resistant [1]: >70.0 |
| O=c1cc(-c2ccccc2Br)oc2cc(O)c(O)c(O)c12 [Compound 6a, 2-(2-Bromophenyl)-5,6,7-trihydroxy-4H-chromen-4-one] | 9 | > 33.3 | > 300 | 9 | – | selectivity ratio ([2]; H1N1 Tamiflu-resistant virus): > 33.3 |
| O=c1cc(-c2cccc(Br)c2)oc2cc(O)c(O)c(O)c12 [Compound 6b, 2-(3-Bromophenyl)-5,6,7-trihydroxy-4H-chromen-4-one] | 4.5 | > 66.7 | > 300 | 4.5 | – | SI (selective index = CC50/EC50), H1N1 Tamiflu-resistant [1]: >66.7; selectivity ratio ([2]; H1N1 Tamiflu-resistant virus): > 66.7 |
| O=c1cc(-c2ccc(Br)cc2)oc2cc(O)c(O)c(O)c12 [Compound 6c, 2-(4-Bromophenyl)-5,6,7-trihydroxy-4H-chromen-4-one] | 4.5 | > 66.7 | > 300 | 4.5 | – | SI (selective index = CC50/EC50), H1N1 Tamiflu-resistant [1]: >66.7; selectivity ratio ([2]; H1N1 Tamiflu-resistant virus): > 66.7 |
| NC(=O)c1ncn([C@@H]2O[C@H](CO)[C@@H](O)[C@H]2O)n1 [Ribavirin, reference compound] | 25.6 | > 11.7 | > 300 | 25.6 | – | selectivity ratio ([2]; H1N1 Tamiflu-resistant virus): > 11.7 |
| CCOC(=O)C1=C[C@@H](OC(CC)CC)[C@H](NC(C)=O)[C@@H](N)C1 [oseltamivir, reference compound] | – | – | – | – | – | activity against H1N1 Tamiflu-resistant virus [1]: void of activity; EC50 (H1N1 influenza virus): 32 µM |
